These results are taken from patent US20230089073A1 (Carmot Therapeutics, Inc., priority 2021, published 2023).

This assay has as its target T1, human GLP-1 receptor (Homo sapiens, UniProt P43220).
T1 construct: expressed in transfected cells
The experiment in a line: GLP-1R cAMP Assay. To be noted: cAMP accumulation in CHO cells stably overexpressing the human GLP-1 receptor; 30 min treatment; HitHunter cAMP kit; read-out: EC50. The format is cell-based. Put shortly:
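CHO cells stably overexpressing human GLP-1R, 10,000 cells/well, treated with compound in 20-point dose response in triplicate for 30 min. cAMP accumulation read by enzyme-complementation luminescence after lysis and overnight incubation; dose-response curves fitted.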
In general terms: Changes in cAMP serve as a functional read-out for many G protein-coupled receptors.

T1 sequence (P43220 24-463): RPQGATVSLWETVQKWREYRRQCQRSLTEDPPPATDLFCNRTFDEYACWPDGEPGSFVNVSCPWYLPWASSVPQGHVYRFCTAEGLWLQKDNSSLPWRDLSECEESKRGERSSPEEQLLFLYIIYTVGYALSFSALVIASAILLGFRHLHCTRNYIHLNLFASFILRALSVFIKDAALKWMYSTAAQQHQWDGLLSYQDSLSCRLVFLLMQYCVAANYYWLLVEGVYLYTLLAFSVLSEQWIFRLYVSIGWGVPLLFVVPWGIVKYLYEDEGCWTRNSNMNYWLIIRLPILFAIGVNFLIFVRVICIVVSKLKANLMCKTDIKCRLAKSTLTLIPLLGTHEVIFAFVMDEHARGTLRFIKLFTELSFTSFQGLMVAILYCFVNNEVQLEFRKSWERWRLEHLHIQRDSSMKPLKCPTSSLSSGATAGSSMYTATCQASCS

One may read the EC50 as the concentration needed to bring the measured effect to its halfway point. For the molecule `O=C(O)c1ccc2nc(CN3CCC(Oc4cccc(COc5ccc(Cl)cc5F)n4)CC3)n(Cc3ccno3)c2c1` [Compound 270, 2-{[4-({6-[(4-chloro-2-fluorophenoxy)methyl]pyridin-2-yl}oxy)piperidin-1-yl]methyl}-1-[(1,2-oxazol-5-yl)methyl]-1H-1,3-benzodiazole-6-carboxylic acid], the EC50 is < 50 nM. Consider `O=C(O)c1ccc2nc(CN3CCC(Oc4ccccc4COc4ccc(Cl)cc4Cl)CC3)n(C[C@@H]3CCO3)c2c1` [Compound 284, 2-[(4-{2-[(2,4-dichlorophenoxy)methyl]phenoxy}piperidin-1-yl)methyl]-1-{[(2S)-oxetan-2-yl]methyl}-1H-1,3-benzodiazole-6-carboxylic acid], for which the EC50 is > 500 nM. With `CCn1cncc1Cn1c(CN2CCC(Oc3cccc(COc4ccc(Cl)cc4Cl)n3)CC2)nc2ccc(C(=O)O)cc21` [Compound 199, 2-{[4-({6-[(2,4-dichlorophenoxy)methyl]pyridin-2-yl}oxy)piperidin-1-yl]methyl}-1-[(1-ethyl-1H-imidazol-5-yl)methyl]-1H-1,3-benzodiazole-6-carboxylic acid], the EC50 is < 50 nM. As for `Cn1cncc1Cn1c(CN2CCC(Oc3cccc(COc4ccc(Cl)cc4Cl)c3)CC2)nc2ccc(C(=O)O)cc21` [Compound 255, 2-[(4-{3-[(2,4-dichlorophenoxy)methyl]phenoxy}piperidin-1-yl)methyl]-1-[(1-methyl-1H-imidazol-5-yl)methyl]-1H-1,3-benzodiazole-6-carboxylic acid], the EC50 was < 50 nM. With `O=C(O)c1ccc2nc(CN3CCC(Oc4ccnc(COc5ccc(F)cc5Cl)n4)CC3)n(C[C@@H]3CCO3)c2n1` [Compound 370], the EC50 is < 50 nM. Turning to `C[C@H]1C[C@@H](Oc2ccnc(COc3ccc(C#N)cc3F)n2)CCN1Cc1nc2c(F)cc(C(=O)O)cc2n1C[C@@H]1CCO1` [Compound 323], the concentration giving a half-maximal response (EC50) is < 50 nM. Turning to `Cc1ccc2oc3cc(C(=O)N4CCN(Cc5nc6ccc(C(=O)O)cc6n5C[C@@H]5CCO5)CC4)ccc3c(=O)c2c1` [Example 44, (S)-2-((4-(7-Methyl-9-oxo-9H-xanthene-3-carbonyl)piperazin-1-yl)methyl)-1-(oxetan-2-ylmethyl)-1H-benzo[d]imidazole-6-carboxylic acid], the EC50 is 50 to 500 nM. The same measure for `Cc1ccc(N(C)c2cncc(C(=O)N3CCN(Cc4nc5ccc(C(=O)O)cc5n4C[C@@H]4CCO4)CC3)c2)c(Cl)c1` [Compound 85, 2-[(4-{5-[(2-chloro-4-methylphenyl)(methyl)amino]pyridine-3-carbonyl}piperazin-1-yl)methyl]-1-{[(2S)-oxetan-2-yl]methyl}-1H-1,3-benzodiazole-6-carboxylic acid]: 50 to 500 nM.

On to `N#Cc1cc(F)ccc1OCc1nccc(OC2CCN(Cc3nc4c(F)cc(C(=O)O)cc4n3C[C@@H]3CCO3)CC2)n1` [Compound 307], for which the EC50 is < 50 nM. Take `CCn1cncc1Cn1c(CN2CCN(C(=O)c3cccc(COc4ccc(C)cc4Cl)c3)CC2)nc2ccc(C(=O)O)cc21` [Compound 65, 2-[(4-{3-[(2-chloro-4-methylphenoxy)methyl]benzoyl}piperazin-1-yl)methyl]-1-[(1-ethyl-1H-imidazol-5-yl)methyl]-1H-1,3-benzodiazole-6-carboxylic acid]: the EC50 fell in the range of 50 to 500 nM.

In the case of `O=C(O)c1ccc2nc(CN3CCC(Oc4ccnc(COc5ccc(Cl)cc5Cl)c4)CC3)n(C[C@@H]3CCO3)c2c1` [Compound 168, 2-{[4-({2-[(2,4-dichlorophenoxy)methyl]pyridin-4-yl}oxy)piperidin-1-yl]methyl}-1-{[(2S)-oxetan-2-yl]methyl}-1H-1,3-benzodiazole-6-carboxylic acid], the EC50 was < 50 nM. For the molecule `N#Cc1ccc(OCc2cccc(OC3CCN(Cc4nc5ccc(C(=O)O)nc5n4C[C@@H]4CCO4)CC3)n2)c(F)c1` [Example 372, (S)-2-((4-((6-((4-Cyano-2-fluorophenoxy)methyl)pyridin-2-yl)oxy)piperidin-1-yl)methyl)-3-(oxetan-2-ylmethyl)-3H-imidazo[4,5-b]pyridine-5-carboxylic acid], the EC50 is < 50 nM. The same measure for `N#Cc1cc(Cl)ccc1OCc1cccc(OC2CCN(Cc3nc4ccc(C(=O)O)cc4n3Cc3ccno3)CC2)n1` [Compound 253, 2-{[4-({6-[(4-chloro-2-cyanophenoxy)methyl]pyridin-2-yl}oxy)piperidin-1-yl]methyl}-1-[(1,2-oxazol-5-yl)methyl]-1H-1,3-benzodiazole-6-carboxylic acid]: > 500 nM; for `C[C@H]1C[C@@H](Oc2ccnc(COc3ccc(C4CC4)cc3C#N)n2)CCN1Cc1nc2c(F)cc(C(=O)O)cc2n1C[C@@H]1CCO1` [Compound 509, 2-(((2S,4S)-4-((2-((2-cyano-4-cyclopropylphenoxy)methyl)pyrimidin-4-yl)oxy)-2-methylpiperidin-1-yl)methyl)-4-fluoro-1-(((S)-oxetan-2-yl)methyl)-1H-benzo[d]imidazole-6-carboxylic acid]: < 50 nM; for `C[C@H]1C[C@@H](Oc2ccnc(COc3ccc(C4CC4)cc3C#N)n2)CCN1Cc1nc2ccc(C(=O)O)cc2n1C[C@@H]1CCO1` [Compound 510, 2-(((2S,4S)-4-((2-((2-cyano-4-cyclopropylphenoxy)methyl)pyrimidin-4-yl)oxy)-2-methylpiperidin-1-yl)methyl)-1-(((S)-oxetan-2-yl)methyl)-1H-benzo[d]imidazole-6-carboxylic acid]: < 50 nM. The figure for `Clc1ccc(COc2cccc(C3=CCN(Cc4ccc(-c5nn[nH]n5)nc4)CC3)n2)c(Cl)c1` [Example 110, 1′-((6-(2H-Tetrazol-5-yl)pyridin-3-yl)methyl)-6-((2,4-dichlorobenzyl)oxy)-1′,2′,3′,6′-tetrahydro-2,4′-bipyridine] is 50 to 500 nM; for `N#Cc1cc(F)ccc1OCc1cc(OC2CCN(Cc3nc4ccc(C(=O)O)cc4n3C[C@@H]3CCO3)CC2)ccn1` [Compound 183, 2-{[4-({2-[(2-cyano-4-fluorophenoxy)methyl]pyridin-4-yl}oxy)piperidin-1-yl]methyl}-1-{[(2S)-oxetan-2-yl]methyl}-1H-1,3-benzodiazole-6-carboxylic acid] it is < 50 nM.

With `N#Cc1cc(Cl)ccc1OCc1nccc(OC2CCN(Cc3nc4ccc(C(=O)O)cc4n3C[C@@H]3CCO3)CC2)n1` [Compound 481, 2-{[4-({2-[(4-chloro-2-cyanophenoxy)methyl]pyrimidin-4-yl}oxy)piperidin-1-yl]methyl}-1-{[(2S)-oxetan-2-yl]methyl}-1H-1,3-benzodiazole-6-carboxylic acid], the EC50 is < 50 nM. For the molecule `O=C(O)c1ccc2nc(CN3CCC(Cc4cccc(OCc5ccc(Cl)cc5Cl)n4)CC3)n(C[C@@H]3CCO3)c2c1` [Compound 200, 2-{[4-({6-[(2,4-dichlorophenyl)methoxy]pyridin-2-yl}methyl)piperidin-1-yl]methyl}-1-{[(2S)-oxetan-2-yl]methyl}-1H-1,3-benzodiazole-6-carboxylic acid], the EC50 was < 50 nM. With `O=C(O)c1ccc2nc(CN3CCC(Oc4cccc(COc5ccc(Cl)cc5Cl)c4)CC3)n(Cc3ncco3)c2c1` [Compound 217, 2-[(4-{3-[(2,4-dichlorophenoxy)methyl]phenoxy}piperidin-1-yl)methyl]-1-[(1,3-oxazol-2-yl)methyl]-1H-1,3-benzodiazole-6-carboxylic acid], the EC50 was < 50 nM.
